From patent US20050100534A1 (priority 2000, published 2005)

Key:
Type in all cases: physicochemical
[1] = Storage temperature (thermal stability)
Solubility in water = assay: Solubility in water
pH stability = details: for pH stability: pH range in which stable
Solubility in methanol = assay: Solubility in methanol
pKa = assay: pKa

Storage temperature [1] | Solubility in water (Solubility in water) | pH stability (pH stability) | Solubility in methanol (Solubility in methanol) [%] | pKa (pKa) | pH stability: alkaline hydrolysis above pH (pH stability; pH above which alkaline hydrolysis occurs) | Structure (SMILES)
up to 95 °C | Very good; 60-70% (w/v) | 2-12 | 10 | ~4.6 | – | O=C(O)[C@H](CO)O[C@@H]1O[C@H](CO)[C@@H](O)[C@H](O)[C@@H]1O
– | – | Alkaline hydrolysis; | – | – | >pH 8-9 | NC(=O)[C@H](CO)O[C@@H]1O[C@H](CO)[C@@H](O)[C@H](O)[C@@H]1O [Firoin-A, β-mannosylglyceramide]
